Measurements published in ChEMBL document CHEMBL1130232, “Synthesis and biological evaluation of 4-(hydroxyalkyl)estradiols and related compounds” (J Med Chem, 1997).

Key:
Conditions in all cases: mcf7
Estrogen receptor [1] = biological target: T1, Estrogen receptor (Homo sapiens, UniProt Q92731+P03372); assay: Affinity for estrogen receptor of human MCF-7 cells; format: cell-based
Estrogen receptor [2] = biological target: T1, Estrogen receptor; assay: Induction of pS2 Gene expression in human MCF-7 cells; format: functional, cell-based
Estrogen receptor [3] = biological target: T1, Estrogen receptor; assay: Affinity for estrogen receptor of human MCF-7 cells at 10e-5 M; format: cell-based

Structure (SMILES)	EC50 (Estrogen receptor [1]) [µM]	EC50 (Estrogen receptor [2]) [µM]	EC50 (Estrogen receptor [3]) [µM]
C[C@]12CC[C@@H]3c4ccc(O)c(CO)c4CC[C@H]3[C@@H]1CC[C@@H]2O	0.364	0.0117	
C[C@]12CC[C@@H]3c4ccc(O)c(O)c4CC[C@H]3[C@@H]1CC[C@@H]2O	0.506	0.0654	
C[C@]12CC[C@@H]3c4ccc(O)c(CCN)c4CC[C@H]3[C@@H]1CC[C@@H]2O			2.5

Next, values leading:

EC50 (Estrogen receptor [1]) [µM]	EC50 (Estrogen receptor [2]) [µM]	EC50 (Estrogen receptor [3]) [µM]	Structure (SMILES)
3.32	2.95		C[C@]12CC[C@@H]3c4ccc(O)c(CCCO)c4CC[C@H]3[C@@H]1CC[C@@H]2O
0.62	0.148		C[C@]12CC[C@@H]3c4ccc(O)c(CCO)c4CC[C@H]3[C@@H]1CC[C@@H]2O
